Source: US7696238B2, “Substituted benzo[d]isoxazol-3-yl amine compounds as analgesics” (Gruenenthal GmbH, priority 2005, dated 2010)

Columns and labels:
[1] = molecular target: T1, KCNQ2/3 ion channel (KCNQ2/3-expressing CHO-K1 cells) (Homo sapiens, UniProt O43525+O43526); assay: Fluorescence assay (FLIPR instrument, membrane potential dye) for substances acting agonistically on the KCNQ2/3 ion channel; type: cell-based; settings: difference between maximum and minimum values, agonistic action detected from a value of −40 (and below)
T1 construct: expressed in transfected cells; host or cells: CHO-K1
Protocol: Pharmacological Test Methods I. Fluorescence Assay (FLIPR™ Instrument) for the Identification of Substances Acting Agonistically on the KCNQ2/3 Ion Channel
On the day before the experiment, KCNQ2/3-expressing CHO-K1 cells and CHO-K1 empty strain cells were seeded out onto coated poly-D-lysine black/clear plates (Falcon/BD Company; Order No.: 356640) in a concentration of 20000 cells/100 μl MEM alpha, 50 ml FCS, 5.5 ml PIS/G/solution (100×) and then incubated for 20-24 hours in an incubator (37° C., 5% CO2). On the day of the experiment the HBSS/hepes working solution and the FMP/HBSS/hepes mixture (Membrane Potential Assay Kit Red (FMP), bulk format Cat. No. R8123) were initially prepared according to the following protocol:
• 1000 ml 1× HBSS buffer (Hank's Balanced Salt Solution (1×) (Gibco; No. 14025)+10 ml hepes (1M stock solution, pH 7.4; hepes Na salt (Sigma Company; No. H7006-500 g; storage at 4° C. in a refrigerator) 2. 1× FMP/HBSS/hepes working solution: • 6 ml HBSS/hepes buffer are added to 5 ml of the FMP solution stored at −20° C. (preparation see below; thawing out at room temperature). The test substances (2 mM batch solution in 100% DMSO) contained in drug plates (Costar 96-well plates, catalogue No. 3795) were then diluted by adding HBSS/hepes buffer to a concentration of 30 μM (3× concentrated). The assay plates on which the cells grow were washed once with 200 μl HBSS/hepes (Cellwash Washer, Labsystems Company, catalogue No. 5161550) and the remaining volume was removed by tapping out the inverted plate twice. 100 μl of the FMP/HBSS/hepes working solution were then added in each case to the cell plates and incubated for 1 hour in the CO2 incubator at 37° C. and 5% CO2. The measurements are then carried out with a FLIPR III instrument from the Molecular Devices company (96-format, using the 540-590 nm band-pass filter in the #2 localization). In the experimental setup of the FLIPR software, filter #2 should be selected. The cell plates and the substance plates were fed alternately into the input stack. A signal test was carried out in each case with the cell plates before adding the substance. The test substances were then added via the pipetting unit of the FLIPR (added volume 50 μl, 3× concentrated, end concentration 10 μM) to the cavities of the cell plates in a total volume of 150 μl/well. The threshold data of the FLIPR program were as follows:
The pipette tips were washed after each pipetting procedure 3 times with 1% DMSO in water. The times of the measurement intervals after addition of the test substances are as follows:
Total measurement time: 6 min/plate
The test samples were evaluated by calculating the difference between the maximum and minimum values. EC50/IC50 values are calculated using the Graph Pad Prism software.
Preparation of the membrane potential loading buffer (membrane potential assay kit red (FMP), bulk format cat. No. R8123) according to the manufacturer's instructions:
10 ml of the 10× assay buffer (component B) were diluted with 90 ml of sterile water and then adjusted to pH 7.4 with 1.0N NaOH (1× assay buffer). One vessel with the FLIPR membrane potential assay component A was completely dissolved in 100 ml 1× assay buffer and thoroughly mixed for 10 minutes with a magnetic stirrer. 5 ml aliquots were then stored at −20° C. (storage shelf life ca. 2 weeks).
An agonistic action can be detected starting from a value of −40 (and below).

[2] = molecular target: T2, hKCNQ2/3 (stably transfected hKCNQ2/3 CHO-K1 cell line) (Homo sapiens, UniProt O43525+O43526); assay: Voltage clamp (patch-clamp) measurements, current increase relative to retigabin; type: cell-based; settings: test substance 10 μM at −40 mV; current increase standardized to retigabin (10 μM) effect
T2 construct: expressed in transfected cells; host or cells: CHO-K1
Protocol: II. Voltage Clamp Measurements
In order to confirm electrophysiologically a KCNQ2/3 agonistic action of the substances, patch-clamp measurements [see Hamill O P, Marty A, Neher E, Sakmann B, Sigworth F J: “Improved patch-clamp techniques for high-resolution current recording from cells and cell-free membrane patches”, Pflugers Arch. 1981 August; 391(2):85-100] were carried out in the voltage clamp mode on a stably transfected hKCNQ2/3 CHO-K1 cell line. After formation of the gigaseal the cells were first of all clamped at a holding potential of −60 mV. Depolarising voltage jumps were then applied up to a potential of +20 mV (increment: 20 mV, duration: 1 second), in order to confirm the functional expression of KCNQ2/3 typical currents. The substances were tested at a potential of −40 mV. The current increase induced by retigabin (10 μM) was first of all recorded on each cell at −40 mV as positive control. After completely washing out the retigabin effect (duration: 80 sec) the test substance (10 μM) was applied. The current increase induced by the test substance was standardized to the retigabin effect and stated as relative efficacy (see below).

Compound | FLIPR membrane potential fluorescence change (ΔF %, max minus min); negative values indicate KCNQ2/3 agonism [1] | Voltage clamp: relative efficacy with respect to retigabin [10 μM] [2]
Cc1cc(C)cc(CNc2noc3c(F)cccc23)c1 [Example 167, (3,5-dimethylbenzyl)-(7-fluorobenzo[d]isoxazol-3-yl)-amine] | −61% | 0.25
Fc1cc(C(F)(F)F)ccc1CNc1noc2ccccc12 [Example 163, benzo[d]isoxazol-3-yl-(2-fluoro-4-trifluoromethyl-benzyl)-amine] | −56% | 1.29
